Measurements as given in patent publication US20220281821A1, “INDAZOLE COMPOUNDS AND THEIR PHARMACEUTICAL COMPOSITIONS” (Jinan University, priority 2019, published 2022).
pIC50: −log10 of the molar value. Like-named read-outs stand apart in the source and are kept apart here.

Columns and labels:
BaF3-ETV6-NTRK2 = biological target: T1, BaF3-ETV6-NTRK2 (Homo sapiens, UniProt Q16620); experiment: Cell proliferation inhibition (CCK-8), BaF3-ETV6-NTRK2 stable strain; format: cell-based, mouse; settings: BaF3-ETV6-NTRK2, 72 hours
T1 construct: fused on or other part: P41212 (Transcription factor ETV6)
How it was run: (§1)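 Ba/F3 cells stably electroporated with ETV6-NTRK3, CD74-NTRK1 or ETV6-NTRK2, selected with G418 and grown without IL3, then cloned by limiting dilution.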

TRKB = biological target: T2, TRKB (Homo sapiens, UniProt Q16620); experiment: Z′-LYTE kinase activity assay, TRKB; format: biochemical; settings: ATP 25 uM
T2 construct: purchased life technologies PV3616
How it was run: (§2)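 Z′-LYTE FRET assay using Tyr 01 peptide substrate (2 μM) in 50 mM HEPES pH 7.5 with 10 mM MgCl2, 1 mM EGTA and 0.01% BRIJ-35. Inhibition was derived from the phosphorylation ratio versus negative control, with IC50 from concentration gradients.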

BaF3-ETV6-NTRK3 = biological target: T3, BaF3-ETV6-NTRK3 (Homo sapiens, UniProt Q16288); experiment: Cell proliferation inhibition (CCK-8), BaF3-ETV6-NTRK3 stable strain; format: cell-based, mouse; settings: BaF3-ETV6-NTRK3, 72 hours
T3 construct: fused on or other part: P41212 (Transcription factor ETV6)
How it was run: as §1

Ba/F3-TRK stable strains = experiment: Cell proliferation of Ba/F3-TRK stable strains, summary statements; format: cell-based, mouse; settings: summary statement
Method: The brief steps of stable strain construction are as follows: construct a pCDNA3.1(+) plasmid vector carrying genes such as CD74-NTRK1, ETV6-NTRK2 and ETV6-NTRK3; the plasmid was electroporated into Ba/F3 cells using the Amaxa® Cell Line Nucleofector® Kit V; 48 hours after electroporated, G418 with a final concentration of 1000 μg/ml was added for screening for two weeks, and then IL3 was removed, and continued screening to obtain polyclonal stable strains; then single clones were selected by a limiting dilution method. The stable strains were then identified using positive drugs, WB and gene sequencing; and the monoclonal clones that were identified as completely correct may be used for the study of cell proliferation inhibitory activity of inhibitors.
Cell proliferation inhibition activity study: the cells in the logarithmic growth phase were seeded into 96-well plates at 8000-12000 cells/well, and inhibitors at different concentrations (0-10 μM) were added the next day, and incubation was continued for 72 hours; then 10 μL of CCK-8 reagent was added to each well, and the incubation was continued for 1-3 hours; and then use a super microplate reader to measure their absorbance values at 450 nm and 650 nm. The half-inhibition concentration (IC50) was calculated using GraphPad Prism 8.0.0.

[1] = Pharmacokinetic evaluation in SD rats; format: in vivo
Method: Pharmacokinetics and oral bioavailability were tested in SD rats. According to the solubility of the drug, a single dose was administered orally, intravenously or by intraperitoneal injection. Animal blood samples were collected at different time points (0, 0.5, 1, 2, 4, 6, 8, and 24 hours), anticoagulated with heparin, and centrifuged to take the supernatant. Blood samples were analyzed by HPLC-MS. DAS2.1 was used for data analysis to detect half-life (T1/2), maximum blood concentration (Cmax), time to peak (Tmax), area under the drug-time curve (AUC), and bioavailability (BA) and other pharmacokinetic data.

TRKs (TRK1, TRK2, TRK3) = experiment: Kinase activity on TRKs, summary statements; format: biochemical; settings: summary statement
Excerpt: Kinase activity assay: Z′-LYTE™ technology (detection by fluorescence, enzyme-conjugated format, based on the difference in sensitivity of phosphorylated and non-phosphorylated peptides to proteolytic cleavage) was applied, and using the principle of fluorescence resonance energy transfer (FRET), a Z′-LYTE™ FRET peptide substrate (Z′-LYTE™ Tyrosine 1 Peptide Substrate, Invitrogen, PV3190), and a secondary reaction were used to detect the inhibitory activity of the compounds on TRKs (TRK1, TRK2, TRK3) (life technologies, PV3144, PV3616, PV3617).
Enzymatic reaction: In a 384-well plate, 5 μL of an enzyme-substrate system (50 mM HEPES pH 7.5, 0.01% BRIJ-35, 10 mM MgCl2, 1 mM EGTA, 2 μM Tyr 01 Peptide Substrate) was added and 5 nL of compound (concentration gradient) was transferred thereto by using the echo520 ultramicro liquid pipetting system. After shaking for 10-20 min at room temperature, 200 nL, 12.5 nL and 25 nL of ATP (final concentrations are 400 uM, 25 uM and 50 uM, respectively) were transferred by using the echo520 ultramicro liquid pipetting system. After shaking and mixing, centrifuging was performed. A reaction was carried out at 30° C. in the dark for 1.5 hours.
Assay reaction: 2.54 of Development Solution (1:128 dilution) was added in each well, and incubated at 37° C. in the dark for 1 hour, and then 5 μL of Stop Reagent was added.
Plate reading: fluorescence signals were detected using a Perkin Elmer EnVision Multimode Plate Reader (excitation at 400 nm, and emission at 460 nm, and 535 nm).
Calculation: the inhibition rate of each well was calculated by the fully active well and control signal wells. The data were analyzed as follows:
Phosphorylation ratio=1−{(emission ratio×F100%−C100%)/[C0%−C100%+emission ratio×(F100%−F0%)]}×100;
Inhibition rate=100×(1−compound phosphorylation ratio/negative control phosphorylation ratio).
IC50 values were calculated by using GraphPad Prism 5.0 software.

TRKC = biological target: T4, TRKC (Homo sapiens, UniProt Q16288); experiment: Z′-LYTE kinase activity assay, TRKC; format: biochemical; settings: ATP 50 uM
T4 construct: purchased life technologies PV3617
How it was run: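 Recombinant TRK kinase tested in a Z′-LYTE FRET assay with 2 μM Tyr 01 peptide substrate in 50 mM HEPES pH 7.5, 10 mM MgCl2, 1 mM EGTA, 0.01% BRIJ-35. IC50 obtained by curve fitting.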

[2] = Rat hepatocyte stability experiment; format: in vitro ADME; settings: for Residual percentage (%) 0 min / Residual percentage (%) 5 min / Residual percentage (%) 15 min / Residual percentage (%) 30 min / Residual percentage (%) 60 min / Residual percentage (%) 120 min: average value; for half-life at 1 μM: rat, rat hepatocytes (suspension)
Method: In William medium E, dilute the 37° C. rat hepatocyte suspension to an appropriate density (viable cell density=2×10^6 cells/mL). In addition, a 2× quantification solution (the concentration of the test compound was 2 μM) was additionally prepared in William's medium E. The hepatocyte solution and 2× quantification solution were preheated in a water bath of 37° C. 40 µL of the preheated hepatocyte solution (2×10^6 cells/mL) was added into the designated wells for 5, 15, 30, 60, and 120 min, and add 40 µL of the preheated 2× quantification solution and start timing. An assay plate was placed in a 37° C., 5% CO2 incubator with shaking at 110 rpm. At 5, 15, 30, 60, and 120 minutes, 240 μL of ACN containing IS was added to each well. The plate was then sealed and stored in a −35° C. freezer. After collecting at all time points, the plate was shaken for 2 minutes and then centrifuging was performed for 15 minutes at 6000 rmp. 100 μL of supernatant from each well was transferred to a 96-well sample plate containing 100 μL of water for LC/MS analysis, determination of compound concentrations, calculation of rate constants and half-lives.

TRKA = biological target: T5, TRKA (Homo sapiens, UniProt P04629); experiment: Z′-LYTE kinase activity assay, TRKA; format: biochemical; settings: ATP 400 uM
T5 construct: purchased life technologies PV3144
How it was run: as §2

BaF3-CD74-NTRK1 = biological target: T6, BaF3-CD74-NTRK1 (Homo sapiens, UniProt P04629); experiment: Cell proliferation inhibition (CCK-8), BaF3-CD74-NTRK1 stable strain; format: cell-based, mouse; settings: BaF3-CD74-NTRK1, 72 hours
T6 construct: fused on or other part: P04233 (HLA class II histocompatibility antigen gamma chain)
How it was run: as §1

T3 sequence (Q16288 whole entry, the tested form may be a part): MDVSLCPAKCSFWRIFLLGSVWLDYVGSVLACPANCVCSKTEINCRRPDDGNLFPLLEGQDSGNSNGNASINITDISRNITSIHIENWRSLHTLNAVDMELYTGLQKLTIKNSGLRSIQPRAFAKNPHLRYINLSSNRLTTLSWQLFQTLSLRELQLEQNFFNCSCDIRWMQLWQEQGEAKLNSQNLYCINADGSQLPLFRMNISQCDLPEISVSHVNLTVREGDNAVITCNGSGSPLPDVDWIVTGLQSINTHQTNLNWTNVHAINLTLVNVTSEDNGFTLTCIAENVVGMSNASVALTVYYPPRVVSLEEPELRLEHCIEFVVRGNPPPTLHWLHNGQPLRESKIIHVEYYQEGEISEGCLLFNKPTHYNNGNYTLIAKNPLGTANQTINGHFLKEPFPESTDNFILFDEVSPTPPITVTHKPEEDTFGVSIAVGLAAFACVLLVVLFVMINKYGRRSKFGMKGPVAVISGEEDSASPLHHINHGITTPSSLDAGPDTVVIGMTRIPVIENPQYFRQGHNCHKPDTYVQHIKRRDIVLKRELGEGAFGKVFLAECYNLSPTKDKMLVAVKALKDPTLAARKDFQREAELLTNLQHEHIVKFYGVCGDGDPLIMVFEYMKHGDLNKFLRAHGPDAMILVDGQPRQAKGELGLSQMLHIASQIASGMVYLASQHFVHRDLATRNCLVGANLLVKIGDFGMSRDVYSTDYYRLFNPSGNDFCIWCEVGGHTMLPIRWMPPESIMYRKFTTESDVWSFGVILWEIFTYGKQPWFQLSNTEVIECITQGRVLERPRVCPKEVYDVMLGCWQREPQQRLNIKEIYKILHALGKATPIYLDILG
T1 sequence (Q16620 538-822 limits assumed): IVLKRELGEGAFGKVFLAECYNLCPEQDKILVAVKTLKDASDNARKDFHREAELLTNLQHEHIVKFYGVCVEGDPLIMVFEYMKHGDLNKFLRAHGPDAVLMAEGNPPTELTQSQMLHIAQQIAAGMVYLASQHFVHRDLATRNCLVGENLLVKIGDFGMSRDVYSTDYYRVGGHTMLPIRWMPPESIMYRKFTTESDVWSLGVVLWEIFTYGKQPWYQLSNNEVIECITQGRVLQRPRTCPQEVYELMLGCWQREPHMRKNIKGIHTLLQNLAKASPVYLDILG
T6 sequence (P04629 510-796 limits assumed): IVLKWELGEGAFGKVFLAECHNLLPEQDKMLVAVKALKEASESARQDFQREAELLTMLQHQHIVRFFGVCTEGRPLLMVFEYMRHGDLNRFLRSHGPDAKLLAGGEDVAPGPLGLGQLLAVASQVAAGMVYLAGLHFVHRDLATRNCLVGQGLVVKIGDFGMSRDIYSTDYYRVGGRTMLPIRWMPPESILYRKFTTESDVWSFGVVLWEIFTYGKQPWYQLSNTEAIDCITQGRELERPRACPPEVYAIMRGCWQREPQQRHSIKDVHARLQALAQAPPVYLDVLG
T4 sequence (Q16288 32-839): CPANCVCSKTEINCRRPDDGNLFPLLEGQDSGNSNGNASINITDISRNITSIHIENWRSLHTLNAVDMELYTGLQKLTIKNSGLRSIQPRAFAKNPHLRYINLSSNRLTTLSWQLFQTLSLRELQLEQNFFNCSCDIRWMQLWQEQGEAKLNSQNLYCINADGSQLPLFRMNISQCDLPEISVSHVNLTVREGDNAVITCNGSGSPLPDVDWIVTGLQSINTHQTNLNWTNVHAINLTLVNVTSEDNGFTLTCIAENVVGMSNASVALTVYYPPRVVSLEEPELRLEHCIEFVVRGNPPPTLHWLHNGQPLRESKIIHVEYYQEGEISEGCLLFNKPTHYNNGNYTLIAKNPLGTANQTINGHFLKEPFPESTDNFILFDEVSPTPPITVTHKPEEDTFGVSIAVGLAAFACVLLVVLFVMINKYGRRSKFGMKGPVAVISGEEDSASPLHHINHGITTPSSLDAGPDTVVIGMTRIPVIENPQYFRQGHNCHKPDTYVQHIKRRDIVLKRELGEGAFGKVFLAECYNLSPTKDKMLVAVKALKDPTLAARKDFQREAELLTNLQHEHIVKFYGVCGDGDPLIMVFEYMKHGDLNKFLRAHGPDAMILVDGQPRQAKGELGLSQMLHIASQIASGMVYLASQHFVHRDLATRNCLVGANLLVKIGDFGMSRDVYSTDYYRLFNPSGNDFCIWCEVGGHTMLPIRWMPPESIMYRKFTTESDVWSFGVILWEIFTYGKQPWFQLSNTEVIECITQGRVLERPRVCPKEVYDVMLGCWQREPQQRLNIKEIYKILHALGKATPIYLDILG
T2 sequence (Q16620 32-822): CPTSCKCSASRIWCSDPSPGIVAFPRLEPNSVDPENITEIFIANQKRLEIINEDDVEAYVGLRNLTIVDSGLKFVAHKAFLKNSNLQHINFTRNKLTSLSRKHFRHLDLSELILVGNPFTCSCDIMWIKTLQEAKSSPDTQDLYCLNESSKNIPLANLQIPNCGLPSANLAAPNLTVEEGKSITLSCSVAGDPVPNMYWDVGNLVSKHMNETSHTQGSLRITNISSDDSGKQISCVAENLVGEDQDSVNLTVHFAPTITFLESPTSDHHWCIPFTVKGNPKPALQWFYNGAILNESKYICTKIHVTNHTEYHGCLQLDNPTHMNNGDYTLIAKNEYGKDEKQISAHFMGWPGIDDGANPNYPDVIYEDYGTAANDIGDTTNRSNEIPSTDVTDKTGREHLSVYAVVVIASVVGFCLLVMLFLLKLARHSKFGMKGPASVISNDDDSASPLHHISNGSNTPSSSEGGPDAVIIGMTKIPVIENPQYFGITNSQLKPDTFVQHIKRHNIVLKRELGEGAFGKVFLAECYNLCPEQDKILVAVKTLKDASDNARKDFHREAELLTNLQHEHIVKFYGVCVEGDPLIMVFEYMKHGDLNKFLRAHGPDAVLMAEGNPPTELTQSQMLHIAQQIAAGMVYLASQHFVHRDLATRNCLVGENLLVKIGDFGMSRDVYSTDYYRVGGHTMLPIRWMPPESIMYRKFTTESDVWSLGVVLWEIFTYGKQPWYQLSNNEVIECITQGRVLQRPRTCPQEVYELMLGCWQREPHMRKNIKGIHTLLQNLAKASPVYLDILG
T5 sequence (P04629 440-796 limits assumed): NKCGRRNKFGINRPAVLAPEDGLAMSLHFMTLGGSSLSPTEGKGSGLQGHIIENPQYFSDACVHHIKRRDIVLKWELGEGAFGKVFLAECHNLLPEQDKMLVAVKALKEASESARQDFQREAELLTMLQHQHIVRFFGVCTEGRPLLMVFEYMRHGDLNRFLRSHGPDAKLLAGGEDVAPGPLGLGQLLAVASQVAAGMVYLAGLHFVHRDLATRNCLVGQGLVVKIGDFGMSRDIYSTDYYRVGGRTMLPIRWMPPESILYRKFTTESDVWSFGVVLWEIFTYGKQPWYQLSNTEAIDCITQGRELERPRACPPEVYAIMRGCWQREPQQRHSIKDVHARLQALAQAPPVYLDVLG

Row | Compound | pIC50 (BaF3-ETV6-NTRK2) | pIC50 (BaF3-ETV6-NTRK3) | inhibitory activity against cell proliferation of the Ba/F3-TRK stable strains (in words) (Ba/F3-TRK stable strains) | inhibitory activity against TRKs kinase (in words) (TRKs (TRK1, TRK2, TRK3)) | Residual percentage (%) 0 min ([2]; rat hepatocytes) | Residual percentage (%) 5 min ([2]; rat hepatocytes) | Residual percentage (%) 15 min ([2]; rat hepatocytes) | Residual percentage (%) 30 min ([2]; rat hepatocytes) | Residual percentage (%) 60 min ([2]; rat hepatocytes) | Residual percentage (%) 120 min ([2]; rat hepatocytes) | half-life at 1 μM [2] | pIC50 (BaF3-CD74-NTRK1) | also measured
1 | O=S(=O)(Nc1ccc2[nH]nc(/C=C/c3ccccn3)c2c1)c1cc(F)cc(F)c1 [DYX-165, (E)-3,5-difluoro-N-(3-(2-(pyridin-2-yl)vinyl)-1H-indazol-5-yl)benzenesulfonamide] | 7.31 | 7.36 | strong inhibitory activity | strong inhibitory activity | 100.00% | 92.73% | 84.16% | 73.15% | 59.81% | 58.02% | 154 min | 6.90 | pIC50 (TRKB): 8.49; Half-life ([1]; Sprague-Dawley, rat, plasma, oral administration, 25 mg/kg, read-out: Half-life (converted)): 1.54 h; Area under the drug-time curve (0-t) ([1]; oral administration, 25 mg/kg): 1035.70 µM·h; Area under the drug-time curve (0-∞) ([1]; oral administration, 25 mg/kg): 1035.78 µM·h; Maximum blood concentration ([1]; oral administration, 25 mg/kg): 91.56 µM; Time to Peak ([1]; oral administration, 25 mg/kg): 4.00 h; oral absorption properties (in words) ([1]; oral, comparison with DYX244-1): better oral absorption properties; pIC50 (TRKC): 8.62; metabolic stability (in words) ([2]; rat hepatocytes, comparison with DYX244-1 and DYX318): better metabolic stability; pIC50 (TRKA): 8.89
2 | C[C@@H](Nc1ccc2[nH]nc(/C=C/c3ccccn3)c2c1)c1cc(F)cc(F)c1 [DYX-244-1, (R,E)-N-(1-(3,5-difluorophenyl)ethyl)-3-(2-(pyridin-2-yl)vinyl)-1H-indazol-5-amine] |  |  |  | strong inhibitory activity | 100.00% | 71.83% | 48.63% | 14.84% | 8.20% | 5.40% | 11.1 min |  | Area under the drug-time curve (0-t) ([1]; intravenous injection, 2 mg/kg): 3.68 µM·h; Area under the drug-time curve (0-∞) ([1]; intravenous injection, 2 mg/kg): 3.69 µM·h; Half-life ([1]; intravenous injection, 2 mg/kg): 1.39 h; Maximum blood concentration ([1]; intravenous injection, 2 mg/kg): 6.77 µM; Removal rate ([1]; intravenous injection, 2 mg/kg): 1.44 L/h/kg; Time to Peak ([1]; intravenous injection, 2 mg/kg): 0.08 h; Bioavailability (%) ([1]; oral 10 mg/kg vs intravenous 2 mg/kg): 8.79%; Area under the drug-time curve (0-t) ([1]; oral administration, 10 mg/kg): 1.62 µM·h; Area under the drug-time curve (0-∞) ([1]; oral administration, 10 mg/kg): 1.64 µM·h; Half-life ([1]; oral administration, 10 mg/kg): 1.13 h; Maximum blood concentration ([1]; oral administration, 10 mg/kg): 0.36 µM; Time to Peak ([1]; oral administration, 10 mg/kg): 2.00 h
3 | C[C@@H](Nc1cnc2[nH]nc(/C=C/c3ccccn3)c2c1)c1cc(F)cc(F)c1 [DYX-318, (R,E)-N-(1-(3,5-difluorophenyl)ethyl)-3-(2-(pyridin-2-yl)vinyl)-1H-pyrazolo[3,4-b]pyridin-5-amine] | 7.47 | 8.04 | strong inhibitory activity | strong inhibitory activity | 100.00% | 27.83% | 12.24% | 1.36% | 0.27% | 0.20% | 2.71 min | 8.02 | 
4 | C[C@]12CC[C@H]3[C@@H](CCC4=CC(=O)CC[C@@]43C)[C@@H]1CC[C@@H]2O [Testosterone, reference compound] |  |  |  |  | 100.00% | 21.21% | 5.78% | BQL | BQL | BQL | 2.23 min |  | 
